Assay results: PMC9646721, “Alkaloid binding to opium poppy major latex proteins triggers structural modification and functional aggregation” (Nature Communications, 2022)
“And” between values parts separate entries of the source, which are not always exact repeats. Identical values can stand only once.

Legend:
[1] = target: T1, NISO (Papaver somniferum, UniProt P0DYP9); design: made in house; host or cells: E. coli ArcticExpress (DE3); conditions: read-out: Km app (substrate kinetics); cited from earlier work
[2] = tested on: THS; conditions: cited from earlier work
[3] = target: T2, MLP15 (Papaver somniferum, UniProt P19825); assay: ANS fluorescence binding curve (direct ANS-protein affinity); design: made in house; host or cells: E. coli ArcticExpress (DE3); conditions: Kd (ANS-protein, apparent), ANS 10 µM fixed, protein 0 to 100 µM; CBS pH 5.5; one-site hyperbolic model
T2 sequence (P19825 1-159): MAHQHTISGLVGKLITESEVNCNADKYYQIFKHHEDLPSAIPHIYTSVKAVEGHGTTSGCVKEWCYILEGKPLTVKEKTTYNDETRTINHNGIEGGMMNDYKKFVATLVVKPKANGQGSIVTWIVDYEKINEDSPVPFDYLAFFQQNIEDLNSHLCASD
Method: (§1) 8-anilino-1-naphthalenesulfonic acid (ANS) fluorescence binding curves and the binding-induced reduction in ANS fluorescence resulting from competition with tested ligands across a range of concentration facilitated the measurement of IC50 and an estimate of Kd values using the binding models and procedures described previously[70]. […] ANS was dissolved in dimethylsufoxide at a concentration of 20 mM, stored at −20 °C until dilution and protected from exposure to light. […] 40 µl of the ANS solution and 40 µl of each MLP/PR10 protein solution were combined to 80 µl final reaction volumes, which were incubated at 21 °C for 10 min to allow equilibration of binding. […] An identical reaction series whereby protein was omitted from the mixtures was measured under identical conditions and trace fluorescence was subtracted from each MLP/PR10 protein-containing sample. Each data set was scaled so that the maximum observed fluorescence corresponded to 100% and individual data points were plotted, and a rectangular hyperbolic ligand binding function was fit, using least-squares analysis (Prism 5 software, Graphpad, USA). Experiments were repeated at least twice with independently prepared protein.

[4] = target: PR10-12; conditions: read-out: Kd (ANS-protein, apparent); ANS 10 µM fixed, protein 0 to 100 µM; CBS pH 5.5; one-site hyperbolic model
Method: (§2) 8-anilino-1-naphthalenesulfonic acid (ANS) fluorescence binding curves and the binding-induced reduction in ANS fluorescence resulting from competition with tested ligands across a range of concentration facilitated the measurement of IC50 and an estimate of Kd values using the binding models and procedures described previously[70]. […] ANS was dissolved in dimethylsufoxide at a concentration of 20 mM, stored at −20 °C until dilution and protected from exposure to light. […] 40 µl of the ANS solution and 40 µl of each MLP/PR10 protein solution were combined to 80 µl final reaction volumes, which were incubated at 21 °C for 10 min to allow equilibration of binding. Triplicate 18-µl aliquots were withdrawn from each 80 µl reaction, transferred to optically clear PCR tubes (Diamed, Canada) and ANS fluorescence was measured following an additional 3-min incubation at 30 °C using a Qiagen Rotor-gene Q 6-plex with excitation and emission filters of 365 ± 20 nm and 460 ± 20 nm, respectively. An identical reaction series whereby protein was omitted from the mixtures was measured under identical conditions and trace fluorescence was subtracted from each MLP/PR10 protein-containing sample. […]

[5] = target: T3, PR10-10 (Papaver somniferum, UniProt A0A9Y2YA81); assay: ANS fluorescence binding curve (direct ANS-protein affinity); conditions: weak signal, Kd not determined
T3 sequence (A0A9Y2YA81 1-158): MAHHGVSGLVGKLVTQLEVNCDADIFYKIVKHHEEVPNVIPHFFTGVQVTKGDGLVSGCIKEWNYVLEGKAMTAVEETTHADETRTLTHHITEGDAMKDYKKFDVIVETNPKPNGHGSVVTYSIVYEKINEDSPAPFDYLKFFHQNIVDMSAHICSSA
Method: as §1

[6] = target: PR10-4; conditions: read-out: Kd (ANS-protein, apparent); ANS 10 µM fixed, protein 0 to 100 µM; CBS pH 5.5; one-site hyperbolic model
Method: as §2

[7] = target: T1, NISO; assay: ANS fluorescence binding curve (direct ANS-protein affinity); design: made in house; host or cells: E. coli ArcticExpress (DE3); conditions: Kd (ANS-protein, apparent), ANS 10 µM fixed, protein 0 to 100 µM; CBS pH 5.5; one-site hyperbolic model
Method: as §1

[8] = target: MLP2; conditions: read-out: Kd (ANS-protein, apparent); ANS 10 µM fixed, protein 0 to 100 µM; CBS pH 5.5; one-site hyperbolic model
Method: as §2

[9] = target: THS2 (Papaver somniferum, UniProt A0A2U9GGW3); assay: ANS fluorescence binding curve (direct ANS-protein affinity); design: made in house; host or cells: E. coli ArcticExpress (DE3); conditions: Kd (ANS-protein, apparent), ANS 10 µM fixed, protein 0 to 100 µM; CBS pH 5.5; one-site hyperbolic model
Method: as §1

[10] = target: T2, MLP15; assay: Isothermal titration calorimetry; format: binding; design: made in house; host or cells: E. coli ArcticExpress (DE3); conditions: ITC, CBS pH 5.5, 25 °C
Method: ITC experiments were conducted using a Microcal VP instrument (Malvern Pananalytical, Malvern, UK). […] Dialysis was carried out in boiled Spectra/Por 1 6–8 kDa MWCO 0.32 ml/cm (Spectrum Labs, USA) tubing thoroughly washed with either buffer before use. The second 1000-fold volume of dialysis buffer was filtered and degassed using a reusable bottle-top filtration apparatus (Nalgene, USA) with disposable […] cellulose filters (VWR, Canada) prior to storage at 4 °C. Ligands were dissolved in the filtered dialysis buffer at 21 °C for approximately one hour, and any insoluble material was removed by repeated centrifugation at 21,000 × g for 10 min. […] Prior to ITC, which was initiated immediately following dialysis, the protein solutions were centrifuged at 17,000 × g and 4 °C for 30 min. Any precipitate was separated from the remaining soluble protein fraction which was quantified by absorption at A280nm and diluted with filtered dialysis buffer immediately before use.
Thermograms were recorded at 25 °C, with a reference power of 10 (dpu/sec) and monitoring of 30 injections of 9 µl BIA ligand solutions into a sample cell containing 1.4 ml of an MLP/PR10 protein solution, with 300 seconds between injections. […] To ensure that we report only the heat of reaction for each interaction, independent titrations of ligand into buffer, and buffer into protein solutions, were used to calculate and then subtract heats of dilution. After subtraction, binding isotherms were analyzed in MicroCal Origin 7 (MicroCal, USA) by fitting a single-site binding model using non-linear least squares regression analysis repeated until convergence. […] Each ITC experiment was repeated 2 to 4 times.

T1 sequence (P0DYP9 entry or part of it): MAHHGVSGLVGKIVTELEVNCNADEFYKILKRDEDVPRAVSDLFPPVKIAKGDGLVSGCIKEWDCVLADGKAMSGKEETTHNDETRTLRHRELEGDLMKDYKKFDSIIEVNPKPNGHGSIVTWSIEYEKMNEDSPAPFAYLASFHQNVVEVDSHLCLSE
THS2, sequence (A0A2U9GGW3 whole entry): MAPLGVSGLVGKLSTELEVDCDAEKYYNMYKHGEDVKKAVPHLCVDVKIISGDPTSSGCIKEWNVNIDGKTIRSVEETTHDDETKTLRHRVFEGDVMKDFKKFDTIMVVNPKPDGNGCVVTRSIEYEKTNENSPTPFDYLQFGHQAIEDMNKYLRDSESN

COc1ccc2c3c1O[C@H]1C(=O)C=C[C@H]4[C@@H](C2)N(C)CC[C@]314 [codeinone]
Km [1]: 48 µM

COC1=C[C@]23CCN(C)[C@H](Cc4ccc(OC)c(O)c42)C3=C[C@@H]1OC(C)=O [salutaridinol-7-O-acetate]
KA (substrate kinetics) [2]: 22 µM

O=S(=O)(O)c1cccc2cccc(Nc3ccccc3)c12 [ANS, 8-anilinonaphthalene-1-sulfonic acid]
Kd [3]: 78 µM and 78.4 µM | Kd [4]: 356 ± 139 µM | ANS binding to PR10-10 (in words) [5]: did not bind ANS in a typical manner | Kd [6]: 107 ± 15.3 µM | Kd [7]: 61 µM and 60.5 µM | Kd [8]: 28.6 ± 3.9 µM | Kd [9]: 21 µM and 20.9 µM | ΔH [10]: -14.69 ± 0.4972 kcal/mol | ΔS [10]: -29.8 cal/mol/˚K | Kd ([10]; single-site model): 55.3 ± 2.8 µM | N ([10]; single-site model): 1.06 ± 0.0244
